Measurements from patent US20080051348A1, “TREATMENT OF INFECTIONS AND OTHER DISORDERS” (RegeneRx Biopharmaceuticals, Inc., priority 2002, published 2008).
≈ marks a conversion by molar mass, not a printed value.

Columns and labels:
Assay type in all cases: cell-based
[1] = system: Escherichia coli; assay: Antimicrobial activity, Example 3
[2] = system: Pseudomonas aeruginosa (PA)
Procedure: (§1) Antimicrobial assays were performed to assess peptide activity against Pseudomonas aeruginosa (PA), Staphylococcus aureus ([…]), and Staphylococcus epidermidis (SE).

[3] = system: Pseudomonas aeruginosa; assay: Antimicrobial assay, Example 1
Procedure: The purpose of this study was to study the antimicrobial activity of peptides against common pathogens in vitro. Antimicrobial assays were performed to assess peptide activity against Pseudomonas aeruginosa. […]

[4] = system: Staphylococcus aureus; assay: Antimicrobial activity, Example 3
[5] = system: Staphylococcus epidermidis (SE); assay: Antimicrobial assay, Example 2
Procedure: as §1

[6] = system: Staphylococcus aureus; assay: Antimicrobial assay, Example 2
Procedure: as §1

EC50 against PA [2]: 18.1 ± 1.7 µg/mL (≈ 3.65 µM)
EC50 against Pseudomonas aeruginosa ([3]; in vitro): 26.5 ± 1.6 µg/mL (≈ 5.34 µM)
SMILES: CC[C@H](C)[C@H](NC(=O)[C@H](CCC(=O)O)NC(=O)[C@H](C)NC(=O)[C@H](CCSC)NC(=O)[C@H](CC(=O)O)NC(=O)[C@@H]1CCCN1C(=O)[C@H](CCCCN)NC(=O)[C@H](CC(=O)O)NC(=O)[C@H](CO)NC(C)=O)C(=O)N[C@@H](CCC(=O)O)C(=O)N[C@@H](CCCCN)C(=O)N[C@@H](Cc1ccccc1)C(=O)N[C@@H](CC(=O)O)C(=O)N[C@@H](CCCCN)C(=O)N[C@@H](CO)C(=O)N[C@@H](CCCCN)C(=O)N[C@@H](CC(C)C)C(=O)N[C@@H](CCCCN)C(=O)N[C@@H](CCCCN)C(=O)N[C@H](C(=O)N[C@@H](CCC(=O)O)C(=O)N[C@H](C(=O)N[C@@H](CCC(N)=O)C(=O)N[C@@H](CCC(=O)O)C(=O)N[C@@H](CCCCN)C(=O)N[C@@H](CC(N)=O)C(=O)N1CCC[C@H]1C(=O)N[C@@H](CC(C)C)C(=O)N1CCC[C@H]1C(=O)N[C@@H](CO)C(=O)N[C@@H](CCCCN)C(=O)N[C@@H](CCC(=O)O)C(=O)N[C@H](C(=O)N[C@H](C(=O)N[C@@H](CCC(=O)O)C(=O)N[C@@H](CCC(N)=O)C(=O)N[C@@H](CCC(=O)O)C(=O)N[C@@H](CCCCN)C(=O)N[C@@H](CCC(N)=O)C(=O)N[C@@H](C)C(=O)NCC(=O)N[C@@H](CCC(=O)O)C(=O)N[C@@H](CO)C(=O)O)[C@@H](C)CC)[C@@H](C)O)[C@@H](C)O)[C@@H](C)O [Tβ4, thymosin β4]
concentrations showing antimicrobial activity [1]: 5-20 n mol/ml
concentrations showing increasingly dose-dependent activity [1]: 50-200 n mol/ml
lowest dose where activity and/or protection was demonstrated ([3]; against Pseudomonas aeruginosa): 0.5 to 1 µg/mL
concentrations showing antimicrobial activity [4]: 5-20 n mol/ml
concentrations showing increasingly dose-dependent activity [4]: 50-200 n mol/ml
effectiveness against staphylococcal strains [5]: weakly effective
effectiveness against staphylococcal strains [6]: weakly effective
